Tests used:
[1] = biological target: T1, MAPKAPK5 (Homo sapiens, UniProt Q8IW41); test: MAPKAP-K5 assay (FlashPlate, 33P-ATP); assay type: biochemical; conditions: 0.6 μM ATP, 30 minutes at room temperature
T1 construct: 1 mU MAPKAP-K5
T1 sequence (Q8IW41 1-473): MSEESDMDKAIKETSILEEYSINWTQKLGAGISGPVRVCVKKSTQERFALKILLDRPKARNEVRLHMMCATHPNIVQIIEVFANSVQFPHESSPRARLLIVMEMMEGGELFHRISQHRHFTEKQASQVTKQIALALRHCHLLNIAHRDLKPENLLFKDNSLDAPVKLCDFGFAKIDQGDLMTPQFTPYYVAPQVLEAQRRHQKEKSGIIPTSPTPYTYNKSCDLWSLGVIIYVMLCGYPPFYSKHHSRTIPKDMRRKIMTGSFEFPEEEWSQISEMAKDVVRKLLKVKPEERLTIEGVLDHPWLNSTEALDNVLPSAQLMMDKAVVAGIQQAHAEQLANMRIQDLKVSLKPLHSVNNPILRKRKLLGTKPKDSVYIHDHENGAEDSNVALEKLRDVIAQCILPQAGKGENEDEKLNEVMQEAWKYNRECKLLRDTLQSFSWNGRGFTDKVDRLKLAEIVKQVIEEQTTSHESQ
Method: 3 μM MAPKAP-K5 peptide substrate

[2] = test system: MMP1 expression by SFs; test: 'MMP assay': MMP1 expression by 'complex trigger' activated synovial fibroblasts (MMP1 ELISA); assay type: cell-based, human; conditions: Homo sapiens, Fibroblast, RASFs, 48 hrs
Method: A 384-well format ELISA for measurement of MMP1 is developed. Various primary antibodies are tested, as well as various ELISA protocols. The following protocol is developed and validated to measure MMP1 levels in SF supernatant in 384 well plates: white Lumitrac 600 384 well plates (Greiner) are coated with 2 μg/mL anti-MMP1 antibody MAB1346 (Chemicon). The antibody is diluted in buffer 40 (1.21 g Tris base (Sigma), 0.58 g NaCl (Calbiochem) and 5 ml 10% NaN3 (Sigma) in 1 L milliQ water and adjusted to pH 8.5). After overnight incubation at 4° C., plates are washed with PBS (80 g NaCl, 2 g KCl (Sigma), 11.5 g Na2HPO4.7H2O and 2 g KH2PO4 in 10 L milliQ; pH 7.4) and blocked with 100 μL/well Casein buffer (2% Casein (VWR International) in PBS). Next day, casein buffer is removed from ELISA plates and replaced by 50 μL/well EC buffer (4 g casein, 2.13 g Na2HPO4 (Sigma), 2 g bovine albumin (Sigma), 0.69 g NaH2PO4.H2O (Sigma), 0.5 g CHAPS (Roche), 23.3 g NaCl, 4 mL 0.5 M EDTA pH 8 (Invitrogen), 5 mL 10% NaN3 in 1 L milliQ and adjusted to pH 7.0). 0.25 mM DTT (Sigma) is added to the thawed samples plates. After removal of the EC buffer, 20 μL of sample is transferred to the ELISA plates. After overnight incubation at 4° C. plates are washed twice with PBS and once with PBST (PBS with 0.05% Tween-20 (Sigma)) and incubated with 35 μL/well biotinylated anti-MMP1 antibody solution (R&D). This secondary antibody is diluted in buffer C (0.82 g NaH2PO4.H2O, 4.82 g Na2HPO4, 46.6 g NaCl, 20 g bovine albumin and 4 mL 0.5M EDTA pH 8 in 2 L milliQ and adjusted to pH 7.0) at a concentration of 5 μg/mL. After 2 h of incubation at RT, plates are washed as described above and incubated with 50 μL/well streptavidin-HRP conjugate (Biosource). Streptavidin-HRP conjugate is diluted in buffer C at a concentration of 0.25 μg/mL. After 45 min, plates are washed as described above and incubated for 5 min with 50 μL/well BM Chem ELISA Substrate (Roche). Readout is performed on the Luminoscan Ascent Luminometer (Labsystems) with an integration time of 200 msec or with an Envision reader (Perkin Elmer).
The increase of MMP1 expression by SFs upon treatment with cytokines relevant in the field of RA (TNF-α, IL1β and OSM) or a combination thereof is shown in FIG. 2 as white bars. For this experiment, SFs are seeded in 96 well plates, 3,000 cells/well. 24 h later, the medium is changed to M199 medium supplemented with 1% FBS. One day after the medium change, cytokines or combinations thereof are added to the cultures, each cytokine being added to a final concentration of 25 ng/mL. 72 h after cytokine addition, the supernatant is collected and processed in the MMP1 ELISA as described in the protocol given above. In parallel with this experiment, SFs are triggered, using the same protocol, with the supernatant of THP1 cells (2-fold diluted in M199+1% FBS) treated with the same cytokines or combinations of cytokines for 48 h in M199 medium+1% FBS. The induction of the MMP1 expression by SFs triggered with the supernatants of TNF-α-treated THP1 cells is stronger (>4.5 fold induction) as compared to the SFs triggered with recombinant TNF-α alone (3-fold induction) and almost equals the 5-fold induction obtained by a mixture of 3 purified cytokines (TNF-α, IL1βb, OSM). […] As the role of TNF-α in the RA pathogenesis is validated (TNF-α-blockers such as Infliximab and Etanercept show some efficacy in the treatment of RA patients) and the THP-1 cells are representative for monocytes/macrophages present in the joint of RA patients, the TNF-α-based trigger mixture prepared by contacting THP-1 cells with TNF-α will contain factors present in the joints of RA patients and subsequently is relevant to RA. This TNF-α-based complex trigger, further referred to as the ‘complex trigger’, will further be used as basis for the ‘MMP assay’.
Dexamethasone is shown to dose-dependently reduce amounts of MMP1 produced by complex trigger activated SFs. […]

SMILES	IC50 [1] [nM]	EC50 [2] [nM]
CCN(CC)CCNC(=O)c1ccc(Nc2ncc(-c3ccc(O)cc3C(F)(F)F)n3ccnc23)cc1 [Compound 75]	> 1000	> 1000
CCN(CC)CCNC(=O)c1ccc(Nc2ncc(-c3ccc(CC(=O)O)cc3)n3ccnc23)cc1 [Compound 76]	> 1000	> 1000
CCN(CC)CCNC(=O)c1ccc(Nc2ncc(-c3cncc4ccccc34)n3ccnc23)cc1 [Compound 77]	> 1000	> 1000
CCN(CC)CCNC(=O)c1ccc(Nc2ncc(-c3cccs3)n3ccnc23)cc1 [Compound 78]	> 1000	> 1000
CCN(CC)CCNC(=O)c1ccc(Nc2ncc(-c3ccc(S(C)(=O)=O)cc3)n3ccnc23)cc1 [Compound 79]	> 1000	> 1000
CCN(CC)CCNC(=O)c1ccc(Nc2ncc(-c3cnc(O)nc3O)n3ccnc23)cc1 [Compound 80]	> 1000	> 1000
CCN(CC)CCNC(=O)c1ccc(Nc2ncc(-c3c(C)n[nH]c3C)n3ccnc23)cc1 [Compound 81]	> 1000	> 1000
CCN(CC)CCNC(=O)c1ccc(Nc2ncc(-c3cn[nH]n3)n3ccnc23)cc1 [Compound 84]	501 to 1000	> 1000
CCN(CC)CCNC(=O)c1ccc(Nc2ncc(-c3ccncc3)n3ccnc23)cc1 [Compound 86]	> 1000	> 1000
CCN(CC)CCNC(=O)c1ccc(Nc2ncc(-c3cncnc3)n3ccnc23)cc1 [Compound 87]	> 1000	> 1000
CCN(CC)CCNC(=O)c1ccc(Nc2ncc(-c3ccnn3C)n3ccnc23)cc1 [Compound 88]	> 1000	> 1000
c1cn2c(-c3nc[nH]n3)cnc(Nc3ccc(N4CCOCC4)cc3)c2n1 [Compound 91]	> 1000	> 1000
Cc1cn2c(-c3cn[nH]c3)cnc(Nc3ccc(C(N)=O)cc3)c2n1 [Compound 92]	> 1000	> 1000
O=C(NCCc1c[nH]c2ccccc12)c1ccc(Nc2ncc(-c3cn[nH]c3)n3ccnc23)cc1 [Compound 94]	501 to 1000	> 1000
NCc1cccc(CNC(=O)c2ccc(Nc3ncc(-c4cn[nH]c4)n4ccnc34)cc2)c1 [Compound 95]	> 1000	101 to 500
NC(=O)c1ccc(-c2cnc(Nc3cccnc3)c3nccn23)cc1 [Compound 96]	> 1000	> 1000
CS(=O)(=O)c1ccc(Nc2ncc(-c3ccc(C(N)=O)cc3)n3ccnc23)cc1 [Compound 97, 4-[8-(4-Methanesulfonyl-phenylamino)-imidazo[1,2-a]pyrazin-5-yl]-benzamide]	> 1000	> 1000
CCN(CC)CCNC(=O)c1ccc(Nc2ncc(-c3cc[nH]c(=O)c3)n3ccnc23)cc1 [Compound 99]	101 to 500	> 1000
Cc1nc(-c2cnc(Nc3ccc(N4CCOCC4)cc3)c3nccn23)n[nH]1 [Compound 100]	> 1000	> 1000
CCN(CC)CCNC(=O)c1ccc(Nc2ncc(C#N)n3ccnc23)cc1 [Compound 101]	> 1000	> 1000
CCN(CC)CCNC(=O)c1ccc(Nc2ncc(-c3cn[nH]c3)n3ccnc23)cn1 [Compound 103, 5-[5-(1H-Pyrazol-4-yl)-imidazo[1,2-a]pyrazin-8-ylamino]-pyridine-2-carboxylic acid (2-diethylamino-ethyl)-amide]	501 to 1000	> 1000

Source: patent publication US8178530B2, “Imidazolopyrazine compounds useful for the treatment of degenerative and inflammatory diseases” (Janssen Pharmaceutica NV, priority 2006, dated 2012)
